# Test results published in patent US5922775A, “Method of treating malignant tumors with ketone thyroxine analogues having no significant hormonal activity” (priority 1997, dated 1999).
# Tests used:
# human cancer cells = conditions: cited from earlier work; for cytostatic / cytocidal activity: cellular assays and in vivo
# [1] = system: microtubule protein (MTP); test: Microtubule assembly (MTP polymerization) in vitro, optical test at 350 nm; assay type: biochemical, bovine or rabbit (brain); conditions: for Percent inhibition of intitial velocity (microtubule assembly in vitro): 10 μM drug, GTP 1 mM, 37° C., averages of duplicate assay; for effect of substitution on inhibition of MTP polymerization: compared with DIME; for inhibitory action on MTP assembly (comparison, FIG. 2): drug concentrations up to 20 μM; for order of potency on MTP assembly (FIG. 3): zero to 10 μM drug, lowered GTP concentration (10 μM)
# Description: This inhibition is critically dependent on the concentration of GTP. The quantitative correlation between the concentrations of DIME and GTP, under conditions of a linear rate of MTP polymerization, follows Michaelis-Menten kinetics and the inhibition portrays a "mixed" type, where km for GTP and Vmax are altered simultaneously. Chemical analogues of DIME inhibit MTP polymerization parallel to their antitumorigenic action in vivo. The MTP site is one of the early cellular response sites of DIME.
# J. Oncol. Abnormal spindle structures could be the result of DIME-MTP interaction or reactions of DIME with components of the microtubule organizing center or with as yet undefined systems sequentially or in concert. Since time-dependent quantitative analysis of the MTP system in situ is unsuitable for initial velocity measurement we adapted the in vitro assembly system of neurotubules as a model for a quantitative analysis of the interaction of DIME with MTP. […] The time course of MTP assembly consists of initiation and propagation and termination steps, Gaskin, et al., 1974, "Turbidimetric studies of the in vitro assembly and disassembly of porcine neurotubules", J. Mol. Biol. 89:737-758. The rate of propagation under defined conditions is sufficiently linear to permit kinetic analysis, that can be evaluated with respect DIME and GTP concentrations. As we show here the inhibition of MTP assembly by DIME occurs in the same range of drug concentration as required to inhibit tumorigonesis in vivo, or to inhibit cell replication or induce eventual cell death; Mendeleyev, et al., 1997. "Structural specificity and tumoricidal action of methyl-3,5-diiodo-4-(4'-methoxyphenoxy)benzoate (DIME)" Int. J. Oncol., 10:689-695. Therefore the DIME-MTP interaction is most probably a component of the apparently pleiotropic cellular mechanism of action of DIME.
# Preparation of MTP and an optical test for polymerization was adopted from published methods, Gaskin, et al., 1974, "Turbidimetric studies of the in vitro assembly and disassembly of porcine neurotubules", J. Mol. Biol. 89:737-758; Tiwari, et al., 1993, "A pH and temperature-dependent cycling method that doubles the yield of microtubule protein", Anal. Biochem. 215:96-103. Bovine or rabbit brain was homogenized in an equal volume of ice cold buffer containing 100 mM Pipes/K^+ (pH 7.4), 4 mM EGTA. 1 mM MgCl2, 0.5 mM DTT and 0.1 mM PMSF, and centrifuged at 39,000 g for 1 hour at 4° C. To the supernatant, DMSO (8% final concentration) and GTP (1 mM final concentration) were added, followed by incubation at 37° C. for 30 minutes. Microtubules were pelleted at 100,000 g at 37° C. for 30 minutes. The pellets were incubated on ice for 15 minutes, followed by resuspension in ice cold PEM buffer (100 mM Pipes/K+ (pH 6.9), 1 mM EGTA, 1 mM MgCl2). This warm polymerization and cold depolymerization cycle was repeated once more and the cold, resuspended monomeric MTP (8-10 mg/ml protein) was used for the optical test for polymerization kinetics. Both rabbit or bovine brain yielded identical MTP preparations.
# The polymerization reaction was started by the addition of […] of MTP solution (equivalent to 0.8-1.0 mg protein) and initial linear rates of increase in absorbance at 350 nm followed and recorded at 37° C. in a Perkin-Elmer 552 double beam spectrophotometer, equipped with a thermostatically controlled cuvette holder.
# It is apparent that the rate of MTP polymerization proceeds in a linear manner, thus conditions for maximal polymerization rates as defined by Berne, B, 1974, "Interpretation of light scattering from long rods", J. Mol. Biol. 89:755-758 appear fulfilled. Therefore it is possible to determine the quantitative correlation between [DIME] and [GTP] by comparing the linear rate in the presence of varying drug and activator concentrations.
# The assay system consisted of 240 μl of PEM buffer containing 8% DMSO […]
# (added in 3 μl), or solvent control and 0.6 mg MTP (60 μl). […]
# E-ras 20 cells = conditions: carboxylic acid vs methyl ester; cited from earlier work
# [2] = system: human mammary cancer cells (MDA-MB-231); test: Growth of human mammary cancer cells (Table 2 A); assay type: cell-based; conditions: 2 μM
# Description: (§1) The effects of these three substances on the growth of human mammary cancer cells (MDA-MB-231) and human lung cancer cells (A 549) are summarized in Table 2.
# In section (a) of Table 2 the effects of DIME, DIPE and DIPP on the growth of mammary cancer cells, assayed at 48 and 72 hrs, is shown. […] The slightly lesser efficacy of DIPP could be predicted from earlier results obtained with DIME analogs (International Journal of Oncology, 1997, 10, 689-695, FIG. 1) where we have shown that extending the methyl to ethyl substitution (on the carboxyl ester) diminishes cytotoxicity against tumor cells. A similar phenomenon occurs when DIPE is extended to DIPP (i.e. from the ethanone to the propanone).
# (§2) (×10^3) Cell number per 2 cm^2
# [3] = system: human lung cancer cells (A 549); test: Growth of human lung cancer cells (Table 2 B); assay type: cell-based
# Description: as §1, §2
# mammary cancer cells = test: Colony formation by mammary cancer cells (FIG. 1); assay type: cell-based, human; conditions: DIME vs DIPE
# Description: FIG. 1 is a graph illustrating the cell killing effects of DIME and DIPE on mammary cancer colonies;
# The effect of DIME and DIPE on colony formation by mammary cancer cells is illustrated in FIG. 1, where the results are superimposable, confirming that cytocidal action of DIME and DIPE are indistinguishable.
# cellular esterases = test: Stability against cellular esterases
# Description: Moreover, amide analogs of DIME, having an NH2 or a substituted amino group, may be subject to hydrolysis catalyzed by cellular amidases. Since the hydrolysis product of such a hydrolysis is a carboxylic acid, the same decrease in efficacy can result. In order to decrease the chemical lability in the DIME pharmacophore structure, ketone analogues of DIME may be used.
# A more detailed kinetic comparison of DIME, DIPE and DIPP on the kinetics of MTP assembly, in a concentration range of zero to 10 μM drug and a louvered GTP concentration (10 μM), is shown in FIG. 3.
# Rana pipiens tadpoles = conditions: tadpole metamorphosis; cited from earlier work
# thyroid iodine uptake = conditions: rat, in vivo; cited from earlier work
# [4] = system: non-malignant mouse pituitary adenoma; conditions: cited from earlier work
compound,measurement,setting,value
COC(=O)c1cc(I)c(Oc2ccc(OC)cc2Cl)c(I)c1 [2'-chloro analogue of DIME],maximal inhibitory action on growth as compared to DIME,human cancer cells; human cancer cells,about 25%
CCCOc1ccc(Oc2c(I)cc(C(=O)OC)cc2I)cc1 [4'-propoxy homologue],cytostatic / cytocidal activity,human cancer cells,completely inactive
CCOc1ccc(Oc2c(I)cc(C(=O)OC)cc2I)cc1 [Compound 2],Percent inhibition of intitial velocity (microtubule assembly in vitro),[1],76%
same,effect of substitution on inhibition of MTP polymerization,[1],progressively diminishes inhibition of MTP polymerization
same,maximal cytocidal action as compared to DIME,human cancer cells; human cancer cells,25-30%
CCCCOc1ccc(Oc2c(I)cc(C(=O)OC)cc2I)cc1 [Compound 4],Percent inhibition of intitial velocity (microtubule assembly in vitro),[1],8%
same,effect of substitution on inhibition of MTP polymerization,[1],progressively diminishes inhibition of MTP polymerization
CCOC(=O)c1cc(I)c(Oc2ccc(OC)cc2)c(I)c1 [Compound 5],Percent inhibition of intitial velocity (microtubule assembly in vitro),[1],35%
same,cytostatic / cytocidal activity,human cancer cells,completely inactive
COc1ccc(Oc2c(I)cc(C(=O)O)cc2I)cc1 [Compound 6],Percent inhibition of intitial velocity (microtubule assembly in vitro),[1],0%
same,effect of substitution on inhibition of MTP polymerization,[1],completely abolishes the inhibitory effect on MTP polymerization
same,efficacy against tumor cells relative to ester,human cancer cells; carboxylic acid from hydrolysis of the ester,much less efficacy against tumor cells than the ester
same,antitumorigenic action,E-ras 20 cells,only halves the antitumorigenic action
COc1ccc(Oc2c(I)cc(C(N)=O)cc2I)cc1 [Compound 7],Percent inhibition of intitial velocity (microtubule assembly in vitro),[1],43%
COc1ccc(Oc2c(I)cc(C(=O)N(C)C)cc2I)cc1 [Compound 9],Percent inhibition of intitial velocity (microtubule assembly in vitro),[1],6%
"COc1ccc(Oc2c(I)cc(C(C)=O)cc2I)cc1 [DIPE, 1-[3,5-diiodo-4-(4'-methoxyphenoxy)-phenyl]-ethanone]","inhibitory action on MTP assembly (comparison, FIG. 2)",[1],similar
same,order of potency on MTP assembly (FIG. 3),[1],DIME>DIPE>DIPP
same,Cell number,"[2]; 48 hours, control 150",55 ×10^3 cell number per 2 cm^2 w
same,Cell number,"[2]; 72 hours, control 300",60 ×10^3 cell number per 2 cm^2 w
same,Cell number,"[3]; 2 μM, 48 hours, control 110",78 ×10^3 cell number per 2 cm^2 w
same,Cell number,"[3]; 2 μM, 72 hours, control 190",81 ×10^3 cell number per 2 cm^2 w
same,Cell number,"[3]; 5 μM + BNPP 150 μM (esterase inhibitor), 48 hours, control 110",37 ×10^3 cell number per 2 cm^2 w
same,Cell number,"[3]; 5 μM + BNPP 150 μM (esterase inhibitor), 72 hours, control 190",38 ×10^3 cell number per 2 cm^2 w
same,Cell number,"[3]; 5 μM, 48 hours, control 110",38 ×10^3 cell number per 2 cm^2 w
same,Cell number,"[3]; 5 μM, 72 hours, control 190",40 ×10^3 cell number per 2 cm^2 w
same,effect of esterase inhibitor BNPP on cytocidal action,"[3]; lung cancer cells, with BNPP",no supportive effect
same,effect on colony formation (FIG. 1),mammary cancer cells,superimposable
same,stability against esterases,cellular esterases,absence of esterase action
"CCC(=O)c1cc(I)c(Oc2ccc(OC)cc2)c(I)c1 [DIPP, 1-[3,5-diiodo-4-(4'-methoxyphenoxy)-phenyl]-1-propanone]","inhibitory action on MTP assembly (comparison, FIG. 2)",[1],similar
same,order of potency on MTP assembly (FIG. 3),[1],DIME>DIPE>DIPP
same,Cell number,"[2]; 48 hours, control 150",90 ×10^3 cell number per 2 cm^2 w
same,Cell number,"[2]; 72 hours, control 300",145 ×10^3 cell number per 2 cm^2 w
same,effectiveness relative to DIME and DIPE,[2]; 72 hrs,about one half as effective as the other two drugs
NC(Cc1cc(I)c(Oc2cc(I)c(O)c(I)c2)c(I)c1)C(=O)O (stereo not drawn) [thyroxine],cell differentiating / metamorphogenic activity,Rana pipiens tadpoles,induces cell differentiation
same,suppression of uptake of iodine by the thyroid,thyroid iodine uptake,suppresses uptake of iodine by the thyroid
same,inhibition of growth of non-malignant pituitary tumor,[4],depress growth of non-malignant mouse pituitary thyrotropic tumors
